Results reported in patent publication US6589966B1, “Cytotoxic metal chelators and methods for making and using same” (Wake Forest University Health Sciences, priority 1998, dated 2003).
Read-outs that look alike come from different tables or passages of the source. One block for each molecule: values may come before it.

How the values were obtained:
[1] = test system: mouse (MBT2) bladder cancer cells; assay: MTT dye reduction cell viability assay on MBT2 cells; format: cell-based
Protocol: (§1) The cytotoxic effects of tachpyr on mouse (MBT2) and human (T24) bladder cancer cells were evaluated in vitro, and compared to normal human fibroblasts (MRC-5). MBT2 cells were provided by Dr. L. Lattime (Thomas Jefferson University, Philadelphia, Pa.), while MRC-5 cells were a gift of H. Blau (Standford University, Standford, Calif.). T24 cells were obtained from ATTC (Rockville, Md.). Cells were grown in RPMI (MBT2) or DME medium (T24 and MRC-5) containing 10% fetal bovine serum in a humidified chamber containing 5% CO2. 5×10^3 cells were plated into 96-well tissue culture dishes, and permitted to attach overnight. Test compounds were then added, with six replicate cultures used for each point.
After 72 hours, cell viability was assessed using an MTT dye reduction assay [Mosmann, T., J. Immunol. Meth. 65:55 (1983)]. The MTT assay is widely used to measure drug effects on cell viability. [see Richardson, D., Blood 86:4295 (1995); Brüggerman, S., Cancer Res. 57:2676 (1997); and Silber, R., Blood 84:3440 (1994)]. Specifically, (3-(4,5-dimethylthiazol-2-yl)-2,5-diphenyl tetraxolium bromide was added to the medium, and the formation of a reduced product was assayed by measuring the optical density at 560/650 nm after 3 hours. Color formation was considered proportional to viable cell numbers. IC50 was defined as the concentration required to inhibit viability by 50%, and was calculated using the Multiple Drug-effect Analysis Program (Biosoft).
MBT2 cells were then incubated with 150 μM (dfo) or 25 μM tachpyr for various lengths of time, and survival was then measured using the MTT assay described above. Viability at time 0 was defined as 100%. […] Rather, cytotoxicity was delayed by approximately 24 hours, paralleling the cytotoxic time course of desferioxamine.
The metal complexes of tachpyr were prepared as disclosed in Example 3, and their effects on MBT2 cells were compared to those of tachpyr after 72 hours using the MTT assay referenced in Example 8.

[2] = Richardson, D., Blood 86:4295 (1995); cited from earlier work
tumor cells [3] = details: background statement; cited from earlier work
cell culture = assay: Preliminary cell culture experiments comparing toxicity of tachpyr with tachpn; format: cell-based
Source text: In order to further explore the hypothesis that oxidative dehydrogenation is involved in chelator toxicity, the tach-based chelator with three N-propyleneamino arms (termed tachpn, Scheme 4 as shown in FIG. 3) has been studied. Tachpn is distinguished from tachpyr in having the —C(H)(CH3)(NH2) fragment in place of the pyridine ring. The α-hydrogens of tachpn are sterically hindered, relative to tachpyr, by the methyl group in the β position, so that tachpn may have a lower propensity toward α-hydrogen abstraction. Further, the pseudo-benzylic H^a of tachpyr would also have a potentially greater tendency to be abstracted, as compared to tachpn, on electronic grounds [see March, J., Advanced Organic Chemistry. McGraw-Hill, pp 914 ff) The considerations would imply that tachpn is less able than tachpyr to undergo oxidative dehydrogenation and to reduce Fe(III). Preliminary cell culture experiments were conducted to compare the toxicity of tachpyr with tachpn (FIG. 3).

tumor cells [4] = test system: tumor cells
[5] = test system: human (T24) bladder cancer cells; assay: MTT dye reduction cell viability assay on T24 cells; format: cell-based; details: cell type T24, 72 hours, read-out: IC50(μM) of Tachpyr
Protocol: as §1
(§2) After 72 hours, cell viability was assessed using an MTT dye reduction assay [Mosmann, T., J. Immunol. Meth. 65:55 (1983)]. The MTT assay is widely used to measure drug effects on cell viability. [see Richardson, D., Blood 86:4295 (1995); Brüggerman, S., Cancer Res. 57:2676 (1997); and Silber, R., Blood 84:3440 (1994)]. […]

[6] = test system: normal human fibroblasts (MRC-5); assay: MTT dye reduction cell viability assay on MRC-5 cells; format: cell-based; details: cell type MRC-5, 72 hours, read-out: IC50(μM) of Tachpyr
Protocol: as §1, §2

[7] = test system: MBT2 or T24 cultured bladder cancer cells; assay: Cytotoxicity toward cultured bladder tumor cells; format: cell-based; details: cultured human and mouse bladder tumor cells
Protocol: as §1, §2

breast cancer cell lines = assay: Cytotoxicity to breast cancer cell lines; format: cell-based
MBT2 cells = assay: Clonogenic assay; format: cell-based, mouse; details: 72 hours with tachpyr, colonies grown seven days
Protocol: Cell viability was also-assessed using a clonogenic assay, which measures the ability of cells to divide and form visible colonies of about 50 or more cells. Replicate plates were exposed to various concentrations of tachpyr added to the growth medium. Control cells received no tachpyr. At the end of the incubation period, the surviving cells were trypsinized, diluted, and re-plated in growth medium without tachpyr. Colonies were permitted to grow for seven days. The growth medium was then removed, and plates were fixed with 0.5% gluteraldehyde, stained with 1% crystal violet, and then counted.

ferritin synthesis = assay: Ferritin synthesis (35S labeling, immunoprecipitation, SDS PAGE); format: cell-based; details: 20 μM tachpyr, 16 hours
Protocol: Ferritin is a major iron storage protein whose synthesis is dependent upon intracellular concentrations of iron. To examine the role of tachpyr in the chelation of intracellular iron, the influence of tachpyr on ferritin synthesis was examined. Cells were exposed for either 7 or 16 hours to media containing either no additions, 20 μM tachpyr, 150 μM desferioxamine or 200 μM ferric nitrolotriacetate. During the last two hours of incubation, cells were metabolically labeled with S-translabel (ICN) and ferritin visualized by immunoprecipitation and SDS PAGE [Torti, S. et al.,J. Biol. Chem. 263:12638 (1988).]

RAW 264.7 cells = assay: Apoptosis: DNA fragmentation by agarose gel electrophoresis; format: cell-based; details: 25 μM, 0, 6, 12 and 20 hours
Source text: Apoptosis, or “programmed cell death,” is a process initiated by many anti-cancer agents. Pathways of apoptosis involve complex intracellular changes, including the action of intracellular proteases (caspases), release of cytochrome C, mitochondrial changes, nuclear condensation and fragmentation, and ultimately cell death. A hallmark of apoptotic cell death is the appearance of “DNA ladders”: DNA cleaved at […] regions to generate a series of DNA fragments that can be visualized using agarose gel electrophoresis. In order to determine whether tachpyr triggers apoptotic pathways, DNA was isolated from RAW 264.7 cells that had been treated with 25 μM tachpyr for 0, 6, 12 and 20 hours. DNA was also isolated from cells treated for 7 hours with 50 μM cisplatin or 500 μM etoposide (VP16). Cisplatin and etoposide are DNA damaging agents that are currently used in cancer therapy and are known to induce apoptosis. They served as positive controls. We compared the effects of tachpyr, VP16 and cisplatin on DNA fragmentation using agarose gel electrophoresis. […] Thus, cytotoxic pathways elicited by tachpyr are similar to those evoked by classic anti-cancer agents, and are consistent with its contemplated use as a chemotherapeutic agent.

IC50 ([1]; Mus musculus, MBT2 cells, 72 hours, MTT, single experiment of FIG. 8, read-out: calculated IC50 from FIG. 8 data): 70 µM | IC50 ([1]; Mus musculus, MBT2 cells, 72 hours, MTT, tachpyr: average of four independent experiments ± standard error, read-out: IC50): 70 µM
Molecule: CC(=O)N(O)CCCCCNC(=O)CCC(=O)N(O)CCCCCNC(=O)CCC(=O)N(O)CCCCCN [desferrioxamine, reference compound]
cytotoxicity (in words) ([1]; MBT2 cells, 72 hours, MTT): cytotoxic | IC50 [2]: 70 µM

Molecule: c1ccc(-c2ccccn2)nc1 [bipy]
cytotoxic effects on tumor cells (in words) (tumor cells [3]): only weak cytotoxic effects

Molecule: [O-][Cl+3]([O-])([O-])[O-].[O-][Cl+3]([O-])([O-])[O-].[Zn+2].c1ccc(CNC2CC(NCc3ccccn3)CC(NCc3ccccn3)C2)nc1 (centres unmarked) [Zn(II) complex of tachpyr]
cytotoxicity (in words) ([1]; MBT2 cells, 72 hours, MTT): not toxic

Molecule: CC(N)CNC1CC(NCC(C)N)CC(NCC(C)N)C1 (centres unmarked) [tachpn]
IC50 (cell culture; preliminary cell culture experiments, cell line not stated): ~80 µM | decrease in toxicity relative to tachpyr (cell culture; ratio of IC50 values): 17 fold

Molecule: C(=NC1CC(N=Cc2ccccn2)CC(N=Cc2ccccn2)C1)c1ccccn1 (stereo not drawn) [tachpyr-3H2, cis,cis-1,3,5-tris(pyridine-2-carboxaldimino)cyclohexane]
cytotoxicity (in words) (tumor cells [4]): no cytotoxicity

Molecule: [Cl-].[Cl-].[Mg+2].c1ccc(CNC2CC(NCc3ccccn3)CC(NCc3ccccn3)C2)nc1 (centres unmarked) [MG(II) complex of tachpyr]
cytotoxicity (in words) ([1]; MBT2 cells, 72 hours, MTT): toxic

Molecule: [Mn+2].[O-][Cl+3]([O-])([O-])[O-].[O-][Cl+3]([O-])([O-])[O-].c1ccc(CNC2CC(NCc3ccccn3)CC(NCc3ccccn3)C2)nc1 (centres unmarked) [MN(II) complex of tachpyr]
cytotoxicity (in words) ([1]; MBT2 cells, 72 hours, MTT): toxic

Molecule: [Fe(tachpyr)]Cl2 [FE(II) complex of tachpyr]
cytotoxicity (in words) ([1]; MBT2 cells, 72 hours, MTT): not toxic

Molecule: [Cl-].[Cl-].[Cu+2].c1ccc(CNC2CC(NCc3ccccn3)CC(NCc3ccccn3)C2)nc1 (centres unmarked) [CU(II) complex of tachpyr]
cytotoxicity (in words) ([1]; MBT2 cells, 72 hours, MTT): not toxic

Molecule: [Ca+2].[Cl-].[Cl-].c1ccc(CNC2CC(NCc3ccccn3)CC(NCc3ccccn3)C2)nc1 (centres unmarked) [Ca(II) complex of tachpyr]
cytotoxicity (in words) ([1]; MBT2 cells, 72 hours, MTT): toxic

IC50 ([1]; MBT2 cells, 72 hours, MTT, single experiment of FIG. 8, read-out: calculated IC50 from FIG. 8 data): 3.6 µM | IC50 ([1]; MBT2 cells, 72 hours, MTT, tachpyr: average of four independent experiments ± standard error, read-out: IC50): 4.6 ± 2 µM | IC50 ([1]; Table I, cell type MBT2, read-out: IC50(μM) of Tachpyr): 2.2 µM | IC50 [5]: 4.3 µM
Molecule: c1ccc(CNC2CC(NCc3ccccn3)CC(NCc3ccccn3)C2)nc1 (centres unmarked) [tachpyr]
delay of cytotoxicity ([1]; MBT2 cells, 25 μM tachpyr, time course, MTT): approximately 24 hours | cytotoxicity (in words) ([1]; MBT2 cells, 72 hours, MTT): cytotoxic | IC50 [6]: 30.5 µM | toxicity (in words) [7]: extremely toxic | cytotoxicity (in words) (breast cancer cell lines): cytotoxic | colony formation (MBT2 cells): inhibited colony formation | ferritin synthesis (ferritin synthesis): repressed | DNA fragmentation (DNA ladders) (RAW 264.7 cells): clearly induced DNA fragmentation
